The NIST ThermoML archive (doi:10.1016/j.fluid.2006.03.020)
± gives the expanded uncertainty stated by the source.

Test: excess molar enthalpy (molar enthalpy of mixing); xn = mol fraction of the nth substance listed
Settings: 303.15 K, 101 kPa, Liquid, Flow calorimetry

SMILES: C1COCCO1 [1,4-dioxane] + CCCCCCCC
- excess molar enthalpy (x1 = 0.0577): 0.0985 ± 0.00287 kcal/mol
- excess molar enthalpy (x1 = 0.1002): 0.161 ± 0.00311 kcal/mol
- excess molar enthalpy (x1 = 0.151): 0.228 ± 0.00311 kcal/mol
- excess molar enthalpy (x1 = 0.2075): 0.291 ± 0.00335 kcal/mol
- excess molar enthalpy (x1 = 0.2491): 0.334 ± 0.00359 kcal/mol
- excess molar enthalpy (x1 = 0.3048): 0.376 ± 0.00382 kcal/mol
- excess molar enthalpy (x1 = 0.3676): 0.4156 ± 0.00406 kcal/mol
- excess molar enthalpy (x1 = 0.4092): 0.4316 ± 0.00406 kcal/mol
- excess molar enthalpy (x1 = 0.4536): 0.4479 ± 0.00406 kcal/mol
- excess molar enthalpy (x1 = 0.507): 0.4522 ± 0.00406 kcal/mol
- excess molar enthalpy (x1 = 0.5583): 0.4529 ± 0.00406 kcal/mol
- excess molar enthalpy (x1 = 0.6089): 0.4381 ± 0.00406 kcal/mol
- excess molar enthalpy (x1 = 0.6599): 0.4195 ± 0.00406 kcal/mol
- excess molar enthalpy (x1 = 0.6959): 0.4001 ± 0.00382 kcal/mol
- excess molar enthalpy (x1 = 0.7553): 0.3599 ± 0.00359 kcal/mol
- excess molar enthalpy (x1 = 0.8045): 0.314 ± 0.00359 kcal/mol
- excess molar enthalpy (x1 = 0.8586): 0.248 ± 0.00335 kcal/mol
- excess molar enthalpy (x1 = 0.8997): 0.192 ± 0.00311 kcal/mol
- excess molar enthalpy (x1 = 0.9352): 0.131 ± 0.00311 kcal/mol

SMILES: C1COCCO1 [1,4-dioxane] + C1CCCCC1
- excess molar enthalpy (x1 = 0.0547): 0.0884 ± 0.00287 kcal/mol
- excess molar enthalpy (x1 = 0.153): 0.211 ± 0.00311 kcal/mol
- excess molar enthalpy (x1 = 0.2558): 0.302 ± 0.00335 kcal/mol
- excess molar enthalpy (x1 = 0.3916): 0.3674 ± 0.00359 kcal/mol
- excess molar enthalpy (x1 = 0.5072): 0.38 ± 0.00382 kcal/mol
- excess molar enthalpy (x1 = 0.6511): 0.346 ± 0.00359 kcal/mol
- excess molar enthalpy (x1 = 0.7029): 0.315 ± 0.00335 kcal/mol
- excess molar enthalpy (x1 = 0.7606): 0.269 ± 0.00335 kcal/mol
- excess molar enthalpy (x1 = 0.8499): 0.189 ± 0.00311 kcal/mol
- excess molar enthalpy (x1 = 0.9288): 0.097 ± 0.00287 kcal/mol

SMILES: CCCCCCCC [octane] + C1CCCCC1
- excess molar enthalpy (x1 = 0.0275): 0.0124 ± 0.00239 kcal/mol
- excess molar enthalpy (x1 = 0.0507): 0.0191 ± 0.00239 kcal/mol
- excess molar enthalpy (x1 = 0.0896): 0.0301 ± 0.00239 kcal/mol
- excess molar enthalpy (x1 = 0.1482): 0.0413 ± 0.00239 kcal/mol
- excess molar enthalpy (x1 = 0.1912): 0.0492 ± 0.00239 kcal/mol
- excess molar enthalpy (x1 = 0.2487): 0.055 ± 0.00239 kcal/mol
- excess molar enthalpy (x1 = 0.2922): 0.0588 ± 0.00239 kcal/mol
- excess molar enthalpy (x1 = 0.3709): 0.0619 ± 0.00239 kcal/mol
- excess molar enthalpy (x1 = 0.4676): 0.0617 ± 0.00239 kcal/mol
- excess molar enthalpy (x1 = 0.5738): 0.0574 ± 0.00239 kcal/mol
- excess molar enthalpy (x1 = 0.642): 0.0516 ± 0.00239 kcal/mol
- excess molar enthalpy (x1 = 0.7256): 0.043 ± 0.00239 kcal/mol
- excess molar enthalpy (x1 = 0.79): 0.0356 ± 0.00239 kcal/mol
- excess molar enthalpy (x1 = 0.8267): 0.0296 ± 0.00239 kcal/mol
- excess molar enthalpy (x1 = 0.869): 0.0237 ± 0.00239 kcal/mol
- excess molar enthalpy (x1 = 0.8976): 0.0179 ± 0.00239 kcal/mol
